{"source": "paper PMC5218480", "about": "(PLoS ONE, 2017)", "test_system": "MV-4-11 cells", "test": "Gene expression microarray analysis (Affymetrix PrimeView) and GSEA", "type": "cell-based, human", "parameters": "RFU PODN (11730768_x_at) / Fold change /veh PODN (11730768_x_at) / RFU LINC00158 (11744669_a_at) / Fold change /veh LINC00158 (11744669_a_at) / RFU DUSP10 (11751237_a_at) / Fold change /veh DUSP10 (11751237_a_at) / RFU ID3 (11757404_x_at) / Fold change /veh ID3 (11757404_x_at) / RFU PLEKHG5 (11737974_s_at) / Fold change /veh PLEKHG5 (11737974_s_at) / RFU LRRC4B (11730491_at) / Fold change /veh LRRC4B (11730491_at) / RFU GIMAP4 (11747438_a_at) / Fold change /veh GIMAP4 (11747438_a_at) / RFU KRT8 (11758183_x_at) / Fold change /veh KRT8 (11758183_x_at) / RFU CNN1 (11734310_a_at) / Fold change /veh CNN1 (11734310_a_at) / RFU VPS37D (11726825_at) / Fold change /veh VPS37D (11726825_at) / RFU C10orf10 (11716522_x_at) / Fold change /veh C10orf10 (11716522_x_at) / RFU KIR2DL2 /// KIR2DL4 /// KIR2DL5A /// KIR2DL5B /// KIR2DS1 /// KIR2DS2 /// KIR2DS3 /// KIR2DS4 /// KIR3DL3 /// KIR3DL3 /// KIR3DS1 (11738374_at) / Fold change /veh KIR2DL2 /// KIR2DL4 /// KIR2DL5A /// KIR2DL5B /// KIR2DS1 /// KIR2DS2 /// KIR2DS3 /// KIR2DS4 /// KIR3DL3 /// KIR3DL3 /// KIR3DS1 (11738374_at) / RFU C1QL1 (11718748_at) / Fold change /veh C1QL1 (11718748_at) / RFU TMPRSS4 (11747572_a_at) / Fold change /veh TMPRSS4 (11747572_a_at) / RFU HAMP (11756126_x_at) / Fold change /veh HAMP (11756126_x_at) / RFU RNFT2 (11725882_a_at) / Fold change /veh RNFT2 (11725882_a_at) / RFU NR4A2 (11747474_a_at) / Fold change /veh NR4A2 (11747474_a_at) / RFU ABCC12 (11746883_a_at) / Fold change /veh ABCC12 (11746883_a_at) / RFU TMEM136 (11760407_x_at) / Fold change /veh TMEM136 (11760407_x_at) / RFU CLDN22 /// WWC2 (11732394_at) / Fold change /veh CLDN22 /// WWC2 (11732394_at) / RFU HLA-DPB1 (11760878_x_at) / Fold change /veh HLA-DPB1 (11760878_x_at) / RFU SPINT1 (11716480_a_at) / Fold change /veh SPINT1 (11716480_a_at) / RFU GAP43 (11754022_s_at) / Fold change /veh GAP43 (11754022_s_at) / RFU A4GNT (11735810_at) / Fold change /veh A4GNT (11735810_at) / RFU PRB3 (11715151_x_at) / Fold change /veh PRB3 (11715151_x_at) / RFU TUBB4B (11761932_at) / Fold change /veh TUBB4B (11761932_at) / RFU CAPN14 (11732068_a_at) / Fold change /veh CAPN14 (11732068_a_at) / RFU TMCC2 (11721928_a_at) / Fold change /veh TMCC2 (11721928_a_at) / RFU IRGQ (11745062_a_at) / Fold change /veh IRGQ (11745062_a_at) / RFU FAM174B (11720279_a_at) / Fold change /veh FAM174B (11720279_a_at) / RFU TMPRSS4 (11748680_a_at) / Fold change /veh TMPRSS4 (11748680_a_at) / RFU FAM212B (11763350_a_at) / Fold change /veh FAM212B (11763350_a_at) / RFU PLEKHG5 (11743358_a_at) / Fold change /veh PLEKHG5 (11743358_a_at) / RFU ZSCAN30 (11745921_a_at) / Fold change /veh ZSCAN30 (11745921_a_at) / RFU CMKLR1 (11741424_a_at) / Fold change /veh CMKLR1 (11741424_a_at) / RFU LOC101060620 /// MAPK8IP1 (11723275_at) / Fold change /veh LOC101060620 /// MAPK8IP1 (11723275_at) / RFU SPTSSB (11747773_x_at) / Fold change /veh SPTSSB (11747773_x_at) / RFU PRSS12 (11739890_at) / Fold change /veh PRSS12 (11739890_at) / RFU BIN1 (11741810_x_at) / Fold change /veh BIN1 (11741810_x_at) / RFU WNT11 (11732464_a_at) / Fold change /veh WNT11 (11732464_a_at) / RFU C10orf10 (11716521_a_at) / Fold change /veh C10orf10 (11716521_a_at) / RFU C5orf56 (11738089_at) / Fold change /veh C5orf56 (11738089_at) / RFU CYB561 (11721691_x_at) / Fold change /veh CYB561 (11721691_x_at) / RFU ANKRD19P (11752326_a_at) / Fold change /veh ANKRD19P (11752326_a_at) / RFU OR2T12 /// OR2T33 /// OR2T8 (11738714_s_at) / Fold change /veh OR2T12 /// OR2T33 /// OR2T8 (11738714_s_at) / RFU VCAN (11748164_a_at) / Fold change /veh VCAN (11748164_a_at) / RFU JSRP1 (11732532_at) / Fold change /veh JSRP1 (11732532_at) / RFU KRTAP10-11 (11738290_x_at) / Fold change /veh KRTAP10-11 (11738290_x_at) / RFU MYO3A (11730013_a_at) / Fold change /veh MYO3A (11730013_a_at) / RFU EBF3 (11725865_a_at) / Fold change /veh EBF3 (11725865_a_at) / RFU CAMK2N1 (11719241_x_at) / Fold change /veh CAMK2N1 (11719241_x_at) / RFU C5orf56 (11738088_a_at) / Fold change /veh C5orf56 (11738088_a_at) / RFU OLFML3 (11715873_a_at) / Fold change /veh OLFML3 (11715873_a_at) / RFU LOC100653217 /// NTM (11731650_a_at) / Fold change /veh LOC100653217 /// NTM (11731650_a_at) / RFU MAPK11 (11762145_a_at) / Fold change /veh MAPK11 (11762145_a_at) / RFU FIZ1 (11724087_x_at) / Fold change /veh FIZ1 (11724087_x_at) / RFU OASL (11726364_x_at) / Fold change /veh OASL (11726364_x_at) / RFU SOX15 (11748057_x_at) / Fold change /veh SOX15 (11748057_x_at) / RFU CD79A (11719716_a_at) / Fold change /veh CD79A (11719716_a_at) / RFU HIST1H1D (11736915_at) / Fold change /veh HIST1H1D (11736915_at) / RFU CASKIN2 (11723855_a_at) / Fold change /veh CASKIN2 (11723855_a_at) / RFU LOC730098 (11760151_x_at) / Fold change /veh LOC730098 (11760151_x_at) / RFU OR4N2 (11742367_at) / Fold change /veh OR4N2 (11742367_at) / RFU PRRT2 (11749266_a_at) / Fold change /veh PRRT2 (11749266_a_at) / RFU SNX32 (11753110_a_at) / Fold change /veh SNX32 (11753110_a_at) / RFU CDHR5 (11726645_a_at) / Fold change /veh CDHR5 (11726645_a_at) / RFU RCAN1 (11760418_a_at) / Fold change /veh RCAN1 (11760418_a_at) / RFU FAM167A (11723789_a_at) / Fold change /veh FAM167A (11723789_a_at) / RFU FAM26E (11764081_at) / Fold change /veh FAM26E (11764081_at) / RFU ISYNA1 (11749810_s_at) / Fold change /veh ISYNA1 (11749810_s_at) / RFU ACY1 (11761880_at) / Fold change /veh ACY1 (11761880_at) / RFU 11764098_at / Fold change /veh 11764098_at / RFU SAMD14 (11745864_x_at) / Fold change /veh SAMD14 (11745864_x_at) / RFU NPB (11741838_a_at) / Fold change /veh NPB (11741838_a_at) / RFU TMPRSS6 (11731388_a_at) / Fold change /veh TMPRSS6 (11731388_a_at) / RFU KRTAP10-2 (11738614_at) / Fold change /veh KRTAP10-2 (11738614_at) / RFU ARHGAP8 /// PRR5-ARHGAP8 (11727945_x_at) / Fold change /veh ARHGAP8 /// PRR5-ARHGAP8 (11727945_x_at) / RFU KRTAP5-7 /// NADSYN1 (11734609_at) / Fold change /veh KRTAP5-7 /// NADSYN1 (11734609_at) / RFU RASL12 (11751679_a_at) / Fold change /veh RASL12 (11751679_a_at) / RFU CDKN2B (11736163_a_at) / Fold change /veh CDKN2B (11736163_a_at) / RFU PRF1 (11729649_at) / Fold change /veh PRF1 (11729649_at) / RFU, ZNF638 /// ZNF638-IT1 / Fold change vs veh, ZNF638 /// ZNF638-IT1 / RFU, PANK3 / Fold change vs veh, PANK3 / RFU, SH3YL1 / Fold change vs veh, SH3YL1 / RFU, ZEB2 / Fold change vs veh, ZEB2 / RFU, NRIP1 / Fold change vs veh, NRIP1 / RFU, PTTG1IP / Fold change vs veh, PTTG1IP / RFU, CAPN2 / Fold change vs veh, CAPN2 / RFU, MED14 / Fold change vs veh, MED14 / RFU, SNORA58 / Fold change vs veh, SNORA58 / RFU, C1orf63 / Fold change vs veh, C1orf63 / RFU, LRRFIP1 / Fold change vs veh, LRRFIP1 / RFU, NDUFAF7 / Fold change vs veh, NDUFAF7 / RFU, SLC12A2 / Fold change vs veh, SLC12A2 / RFU, IBTK / Fold change vs veh, IBTK / RFU, ESF1 / Fold change vs veh, ESF1 / Fold change vs veh, TMEM50B / RFU, TAOK1 / Fold change vs veh, TAOK1 / RFU, ACBD3 / Fold change vs veh, ACBD3 / RFU, TMA16 / Fold change vs veh, TMA16 / RFU, RWDD3 / Fold change vs veh, RWDD3 / RFU, BCAT1 / Fold change vs veh, BCAT1 / RFU, EDEM3 / Fold change vs veh, EDEM3 / RFU, TMEM33 / Fold change vs veh, TMEM33 / RFU, WDR75 / Fold change vs veh, WDR75 / RFU, AHCTF1 / Fold change vs veh, AHCTF1 / RFU, TFRC / Fold change vs veh, TFRC / RFU, ZDHHC17 / Fold change vs veh, ZDHHC17 / RFU, NOM1 / Fold change vs veh, NOM1 / RFU, ARL8B / Fold change vs veh, ARL8B / RFU, ZBTB11 / Fold change vs veh, ZBTB11 / RFU, TAMM41 / Fold change vs veh, TAMM41 / RFU, KIAA1704 /// LOC100996395 / Fold change vs veh, KIAA1704 /// LOC100996395 / RFU, ING1 / Fold change vs veh, ING1 / RFU, TRMT61B / Fold change vs veh, TRMT61B / RFU, FUBP3 / Fold change vs veh, FUBP3 / RFU, TP53 / Fold change vs veh, TP53 / RFU, TNKS2 / Fold change vs veh, TNKS2 / RFU, ZFP14 / Fold change vs veh, ZFP14 / RFU, ACTR2 / Fold change vs veh, ACTR2 / RFU, PPP3R1 / Fold change vs veh, PPP3R1 / RFU, PIK3R1 / Fold change vs veh, PIK3R1 / RFU, HNRNPA1 / Fold change vs veh, HNRNPA1 / RFU, RNF170 / Fold change vs veh, RNF170 / RFU, ZNF28 / Fold change vs veh, ZNF28 / RFU, RNGTT / Fold change vs veh, RNGTT / RFU, OGT / Fold change vs veh, OGT / RFU, BRD1 / Fold change vs veh, BRD1 / RFU, MARS / Fold change vs veh, MARS / RFU, ZNF655 / Fold change vs veh, ZNF655 / RFU, FAHD1 / Fold change vs veh, FAHD1 / RFU, BDP1 / Fold change vs veh, BDP1 / RFU, LRRCC1 / Fold change vs veh, LRRCC1 / RFU, ARID1A / Fold change vs veh, ARID1A / RFU, ZNF146 / Fold change vs veh, ZNF146 / RFU, ZNF330 / Fold change vs veh, ZNF330 / RFU, GPN3 / Fold change vs veh, GPN3 / RFU, C9orf123 / Fold change vs veh, C9orf123 / RFU, N4BP2L2 / Fold change vs veh, N4BP2L2 / RFU, ARFIP1 / Fold change vs veh, ARFIP1 / RFU, FAM179B / Fold change vs veh, FAM179B / RFU, BCL10 / Fold change vs veh, BCL10 / RFU, UHRF1BP1L / Fold change vs veh, UHRF1BP1L / RFU, BET1 / Fold change vs veh, BET1 / RFU, CNOT2 / Fold change vs veh, CNOT2 / RFU, ZNF268 / Fold change vs veh, ZNF268 / Fold change vs veh, ZNF507 / RFU, DGCR2 / Fold change vs veh, DGCR2 / RFU, WDSUB1 / Fold change vs veh, WDSUB1 / Fold change vs veh, HSP90B1 /// MIR3652 / RFU, ADSS / Fold change vs veh, ADSS / RFU, GK / Fold change vs veh, GK / RFU, ZNF148 / Fold change vs veh, ZNF148 / RFU, TAF9 / Fold change vs veh, TAF9 / RFU, SLC1A5 / Fold change vs veh, SLC1A5 / RFU, SLMO2 / Fold change vs veh, SLMO2 / RFU, ABCC4 / Fold change vs veh, ABCC4 / RFU, LOC101060439 /// RAP1B / Fold change vs veh, LOC101060439 /// RAP1B / RFU, RFX7 / Fold change vs veh, RFX7 / RFU, GTPBP10 / Fold change vs veh, GTPBP10 / RFU, CNEP1R1 / Fold change vs veh, CNEP1R1 / RFU, BIVM-ERCC5 /// ERCC5 / Fold change vs veh, BIVM-ERCC5 /// ERCC5 / RFU, ILF3 / Fold change vs veh, ILF3 / RFU 11762660_at / Fold change /veh 11762660_at / RFU VCAN (11757783_s_at) / Fold change /veh VCAN (11757783_s_at) / RFU DDX43 (11728927_at) / Fold change /veh DDX43 (11728927_at) / RFU KRT8 (11758188_x_at) / Fold change /veh KRT8 (11758188_x_at) / RFU NKD1 (11759106_at) / Fold change /veh NKD1 (11759106_at) / RFU SRD5A1 (11742802_a_at) / Fold change /veh SRD5A1 (11742802_a_at) / RFU TPSAB1 /// TPSB2 (11721975_s_at) / Fold change /veh TPSAB1 /// TPSB2 (11721975_s_at) / RFU GSTM3 (11746129_a_at) / Fold change /veh GSTM3 (11746129_a_at) / RFU IL23R (11737362_x_at) / Fold change /veh IL23R (11737362_x_at) / RFU TMEM51 (11727254_a_at) / Fold change /veh TMEM51 (11727254_a_at) / RFU PIWIL2 (11732686_x_at) / Fold change /veh PIWIL2 (11732686_x_at) / RFU ORM1 (11744905_x_at) / Fold change /veh ORM1 (11744905_x_at) / RFU CCDC152 (11743942_at) / Fold change /veh CCDC152 (11743942_at) / RFU ECM1 (11717891_a_at) / Fold change /veh ECM1 (11717891_a_at) / RFU IL23R (11748794_a_at) / Fold change /veh IL23R (11748794_a_at) / RFU TNFAIP8L3 (11732012_x_at) / Fold change /veh TNFAIP8L3 (11732012_x_at) / RFU MBOAT4 (11741988_at) / Fold change /veh MBOAT4 (11741988_at) / RFU 11764193_at / Fold change /veh 11764193_at / RFU TMEM53 (11763286_at) / Fold change /veh TMEM53 (11763286_at) / RFU MAGEB2 (11727129_at) / Fold change /veh MAGEB2 (11727129_at) / RFU TMEM200A (11744735_a_at) / Fold change /veh TMEM200A (11744735_a_at) / RFU CCDC152 (11751479_a_at) / Fold change /veh CCDC152 (11751479_a_at) / RFU FAM211A (11726209_a_at) / Fold change /veh FAM211A (11726209_a_at) / RFU RGS16 (11746705_a_at) / Fold change /veh RGS16 (11746705_a_at) / RFU VCAN (11755009_s_at) / Fold change /veh VCAN (11755009_s_at) / RFU RHOB (11743442_s_at) / Fold change /veh RHOB (11743442_s_at) / RFU RGS16 (11720943_a_at) / Fold change /veh RGS16 (11720943_a_at) / RFU RGS16 (11720944_at) / Fold change /veh RGS16 (11720944_at) / RFU, VPS4B / Fold change vs veh, VPS4B / RFU, CREB1 / Fold change vs veh, CREB1 / RFU, DNAJC13 / Fold change vs veh, DNAJC13 / RFU, GNAQ / Fold change vs veh, GNAQ / RFU, CDK5R1 / Fold change vs veh, CDK5R1 / RFU, ZRANB3 / Fold change vs veh, ZRANB3 / RFU, CUL4A / Fold change vs veh, CUL4A / RFU, CCNY / Fold change vs veh, CCNY / RFU, UFL1 / Fold change vs veh, UFL1 / RFU, COG3 / Fold change vs veh, COG3 / RFU, DIAPH2 / Fold change vs veh, DIAPH2 / RFU, SKA2 / Fold change vs veh, SKA2 / RFU, AFF3 / Fold change vs veh, AFF3 / RFU, LMF1 / Fold change vs veh, LMF1 / RFU, IPO11 / Fold change vs veh, IPO11 / RFU, DFFB / Fold change vs veh, DFFB / RFU, FOXP1 / Fold change vs veh, FOXP1 / RFU, CARD8 / Fold change vs veh, CARD8 / RFU, STRN3 / Fold change vs veh, STRN3 / RFU, ADK / Fold change vs veh, ADK / RFU, RASSF2 / Fold change vs veh, RASSF2 / RFU, WIPF1 / Fold change vs veh, WIPF1 / RFU, LARP1B / Fold change vs veh, LARP1B / RFU, RASA1 / Fold change vs veh, RASA1 / RFU, RB1 / Fold change vs veh, RB1 / RFU, PPFIA1 / Fold change vs veh, PPFIA1 / RFU, MAT2A / Fold change vs veh, MAT2A / RFU, CCT5 / Fold change vs veh, CCT5 / RFU, WDR92 / Fold change vs veh, WDR92 / RFU, CUX1 / Fold change vs veh, CUX1 / RFU, TTC7A / Fold change vs veh, TTC7A / RFU, TMEM135 / Fold change vs veh, TMEM135 / RFU, DEPTOR / Fold change vs veh, DEPTOR / RFU, CPM / Fold change vs veh, CPM / RFU, DNAJB6 / Fold change vs veh, DNAJB6 / RFU, CACNA2D3 / Fold change vs veh, CACNA2D3 / RFU, DTX4 / Fold change vs veh, DTX4 / RFU, TFCP2 / Fold change vs veh, TFCP2 / RFU, GMCL1 /// GMCL1P1 / Fold change vs veh, GMCL1 /// GMCL1P1 / RFU, AEBP2 / Fold change vs veh, AEBP2 / RFU, SNHG1 /// SNORD22 /// SNORD25 /// SNORD26 /// SNORD27 /// SNORD28 /// SNORD29 /// SNORD31 / Fold change vs veh, SNHG1 /// SNORD22 /// SNORD25 /// SNORD26 /// SNORD27 /// SNORD28 /// SNORD29 /// SNORD31 / Fold change (Aza/veh), C12orf56 (ProbeSet 11735607_a_at) / Fold change (ACY-1035/veh), C12orf56 (ProbeSet 11735607_a_at) / Fold change (Aza/veh), FGFR1OP (ProbeSet 11751329_s_at) / Fold change (ACY-1035/veh), FGFR1OP (ProbeSet 11751329_s_at) / Fold change (Aza/veh), VPS36 (ProbeSet 11739960_a_at) / Fold change (ACY-1035/veh), VPS36 (ProbeSet 11739960_a_at) / RFU SYPL1 (11715823_x_at) / Fold change /veh SYPL1 (11715823_x_at) / RFU IGFBP7 (11715501_s_at) / Fold change /veh IGFBP7 (11715501_s_at) / RFU REEP3 (11722064_at) / Fold change /veh REEP3 (11722064_at) / RFU IGLL1 (11728026_x_at) / Fold change /veh IGLL1 (11728026_x_at): dose or concentration left out as unconfirmed", "conditions": "ProbeSet 11716999_a_at; LIST D"}
{"smiles": "Nc1ccc(-c2cccs2)cc1NC(=O)c1ccc2c(c1)cc(C1CC1)n2CCN1CCOCC1", "note": "[ACY-1035]", "values": [{"measurement": "RFU, RASA1", "value": 200.63, "unit": "RFU"}]}
